Results: ChEMBL document CHEMBL1150758, “Heyneanine hydroxyindolenine, a new indole alkaloid from Ervatamia coronaria var. plena” (J Nat Prod, 1988)
Active and inactive are the calls of the source. The calls are words filed in the database; no cut-off is given here.

Legend:
[1] = tested on: KB; experiment: Cytotoxicity against human KB cells; assay type: functional, cell-based
[2] = tested on: P388; experiment: Cytotoxicity against mouse P388 cells; assay type: functional, cell-based

Structure (SMILES)	Activity [1]	Activity [2]
CC[C@H]1C[C@@H]2CN3CC[C@]4(O)C(=Nc5ccccc54)[C@](C(=O)OC)(C2)[C@H]13	inactive	inactive
CC[C@H]1C[C@@H]2CN3CC[C@]4(O)C(=Nc5ccc(OC)cc54)[C@](C(=O)OC)(C2)[C@H]13	inactive	inactive
CC[C@H]1C[C@H]2C[C@@]3(C(=O)OC)c4[nH]c5ccccc5c4CCN(C2=O)[C@@H]13	inactive	inactive
COC(=O)[C@@]12C[C@@H]3C[C@H]([C@H](C)O)[C@@H]1N(CC[C@]1(O)C2=Nc2ccc(OC)cc21)C3	inactive	inactive
COC(=O)[C@@]12C[C@@H]3C[C@H]([C@H](C)O)[C@@H]1N(CC[C@]1(O)C2=Nc2ccccc21)C3	inactive	inactive
